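Tested at 5 concentrations; 48 h exposure; 96-well plates; endpoints linearly interpolated, else capped at highest concentration. At the TGI there is no net growth.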
How the values were obtained:
Test in all cases: NCI-60 cell line screen, 48 h
MOLT-4 leukemia = tested on: MOLT-4 leukemia
EKVX NSCLC = tested on: EKVX NSCLC
LXFL 529 NSCLC = tested on: LXFL 529 NSCLC
OVCAR-3 ovarian = tested on: OVCAR-3 ovarian
UO-31 renal = tested on: UO-31 renal
HOP-62 NSCLC = tested on: HOP-62 NSCLC
HOP-92 NSCLC = tested on: HOP-92 NSCLC
U251 CNS = tested on: U251 CNS
HOP-18 NSCLC = tested on: HOP-18 NSCLC

Structure (SMILES): CN/N=C(/Cc1occc(=O)c1O)C(=O)Nc1ccc(C)c(C)c1
- TGI (MOLT-4 leukemia): > 100 µM
- TGI (EKVX NSCLC): > 100 µM
- TGI (LXFL 529 NSCLC): > 100 µM
- TGI (OVCAR-3 ovarian): > 100 µM
- TGI (UO-31 renal): > 100 µM
- TGI (HOP-62 NSCLC): > 100 µM
- TGI (HOP-92 NSCLC): > 100 µM
- TGI (U251 CNS): > 100 µM

Structure (SMILES): CC(=O)Nc1ccc(/C=C(\NC(=O)c2ccccc2)c2nc3ccc4c(c3[nH]2)C(=O)c2ccccc2C4=O)cc1
- TGI (HOP-18 NSCLC): > 100 µM
- TGI (MOLT-4 leukemia): 49.3 µM
- TGI (EKVX NSCLC): > 100 µM
- TGI (LXFL 529 NSCLC): > 100 µM
- TGI (OVCAR-3 ovarian): > 100 µM
- TGI (UO-31 renal): 9.17 µM
- TGI (HOP-62 NSCLC): > 100 µM
- TGI (HOP-92 NSCLC): > 100 µM
- TGI (U251 CNS): > 100 µM

Structure (SMILES): COc1cccc(N2C(=O)c3c(c4[nH]c5ccccc5c4c4ccc(C(C)(C)C)cc34)C2=O)c1
- TGI (HOP-18 NSCLC): > 100 µM
- TGI (MOLT-4 leukemia): > 100 µM
- TGI (EKVX NSCLC): > 100 µM
- TGI (LXFL 529 NSCLC): > 100 µM
- TGI (OVCAR-3 ovarian): > 100 µM
- TGI (UO-31 renal): > 100 µM
- TGI (HOP-62 NSCLC): > 100 µM
- TGI (HOP-92 NSCLC): > 100 µM
- TGI (U251 CNS): > 100 µM

Structure (SMILES): COc1nc2c(OC)cccc2c(OC)c1C=O
- TGI (HOP-18 NSCLC): > 100 µM
- TGI (MOLT-4 leukemia): > 100 µM
- TGI (EKVX NSCLC): > 100 µM
- TGI (OVCAR-3 ovarian): > 100 µM
- TGI (UO-31 renal): > 100 µM
- TGI (HOP-62 NSCLC): > 100 µM
- TGI (U251 CNS): > 100 µM

Structure (SMILES): C/C(=N\NC(=S)N1CCCCCC1)c1nccnc1C
- TGI (HOP-18 NSCLC): 76.8 µM
- TGI (LXFL 529 NSCLC): > 100 µM
- TGI (HOP-62 NSCLC): > 100 µM
- TGI (U251 CNS): > 100 µM

Structure (SMILES): Cn1ncc(=S)[nH]c1=S
- TGI (HOP-18 NSCLC): > 100 µM
- TGI (MOLT-4 leukemia): > 100 µM
- TGI (EKVX NSCLC): > 100 µM
- TGI (LXFL 529 NSCLC): > 100 µM
- TGI (OVCAR-3 ovarian): > 100 µM
- TGI (UO-31 renal): > 100 µM
- TGI (HOP-62 NSCLC): > 100 µM
- TGI (HOP-92 NSCLC): > 100 µM
- TGI (U251 CNS): > 100 µM

Structure (SMILES): O=C(Nc1ccc(Cl)c(C(F)(F)F)c1)C(=O)C(C(=O)/C=C/c1ccccc1)C1OC(=O)c2ccccc21 (stereo not given)
- TGI (HOP-18 NSCLC): > 100 µM
- TGI (MOLT-4 leukemia): > 100 µM
- TGI (EKVX NSCLC): > 100 µM
- TGI (LXFL 529 NSCLC): > 100 µM
- TGI (OVCAR-3 ovarian): > 100 µM
- TGI (UO-31 renal): > 100 µM
- TGI (HOP-62 NSCLC): > 100 µM
- TGI (HOP-92 NSCLC): > 100 µM
- TGI (U251 CNS): > 100 µM

Structure (SMILES): CC(=O)N1CCC2(C=Nc3ccccc32)CC1
- TGI (HOP-18 NSCLC): > 100 µM
- TGI (MOLT-4 leukemia): > 100 µM
- TGI (EKVX NSCLC): > 100 µM
- TGI (LXFL 529 NSCLC): > 100 µM
- TGI (OVCAR-3 ovarian): > 100 µM
- TGI (HOP-62 NSCLC): > 100 µM
- TGI (HOP-92 NSCLC): > 100 µM
- TGI (U251 CNS): > 100 µM

Structure (SMILES): O=C(O)c1ccc(S(=O)(=O)c2ccccc2)c([N+](=O)[O-])c1
- TGI (HOP-18 NSCLC): > 100 µM
- TGI (MOLT-4 leukemia): > 100 µM
- TGI (EKVX NSCLC): > 100 µM
- TGI (LXFL 529 NSCLC): > 100 µM
- TGI (OVCAR-3 ovarian): > 100 µM
- TGI (UO-31 renal): > 100 µM
- TGI (HOP-62 NSCLC): > 100 µM
- TGI (HOP-92 NSCLC): > 100 µM
- TGI (U251 CNS): > 100 µM

Structure (SMILES): COC(=O)C1(C)C=C(Nc2ccccc2)C(=O)N1c1ccccc1 (stereo not given)
- TGI (HOP-18 NSCLC): > 100 µM
- TGI (MOLT-4 leukemia): > 100 µM
- TGI (EKVX NSCLC): > 100 µM
- TGI (LXFL 529 NSCLC): > 100 µM
- TGI (OVCAR-3 ovarian): > 100 µM
- TGI (UO-31 renal): > 100 µM
- TGI (HOP-62 NSCLC): > 100 µM
- TGI (HOP-92 NSCLC): > 100 µM
- TGI (U251 CNS): > 100 µM

Structure (SMILES): Cc1cc2c(cc1C)NC(=O)C(NC(=O)/C=C/c1ccccc1)C=N2 (stereo not given)
- TGI (HOP-18 NSCLC): > 100 µM
- TGI (MOLT-4 leukemia): 57.7 µM
- TGI (EKVX NSCLC): > 100 µM
- TGI (LXFL 529 NSCLC): > 100 µM
- TGI (OVCAR-3 ovarian): 55.2 µM
- TGI (UO-31 renal): > 100 µM
- TGI (HOP-62 NSCLC): > 100 µM
- TGI (U251 CNS): 70.2 µM

Structure (SMILES): CC(=O)N(C)OC(=O)CC(=O)c1ccccc1
- TGI (MOLT-4 leukemia): > 100 µM
- TGI (LXFL 529 NSCLC): > 100 µM
- TGI (OVCAR-3 ovarian): > 100 µM
- TGI (UO-31 renal): > 100 µM
- TGI (HOP-62 NSCLC): > 100 µM
- TGI (HOP-92 NSCLC): > 100 µM
- TGI (U251 CNS): > 100 µM

Structure (SMILES): COc1ccc(OCC(=O)O)c2c1CCC(C(C)C)C2=O (stereo not given)
- TGI (HOP-18 NSCLC): > 100 µM
- TGI (MOLT-4 leukemia): > 100 µM
- TGI (EKVX NSCLC): > 100 µM
- TGI (LXFL 529 NSCLC): > 100 µM
- TGI (OVCAR-3 ovarian): > 100 µM
- TGI (UO-31 renal): > 100 µM
- TGI (HOP-62 NSCLC): > 100 µM
- TGI (HOP-92 NSCLC): > 100 µM
- TGI (U251 CNS): > 100 µM

Reference: PubChem BioAssay (NCI)
